Source: ChEMBL document CHEMBL5137080, “Discovery of Novel 7-Hydroxy-5-oxo-4,5-dihydrothieno[3,2-b]pyridine-6-carboxamide Derivatives with Potent and Selective Antifungal Activity against Cryptococcus Species” (J Med Chem, 2022)
Values after ≈ are worked out from the molar mass of the structure shown.

Legend:
Candida albicans = assay: Antifungal activity against Candida albicans SC5314 assessed as fungal growth inhibition incubated for 48 hrs by broth microdilution method; format: functional
Cryptococcus neoformans = assay: Antifungal activity against Cryptococcus neoformans H99 assessed as fungal growth inhibition incubated for 72 hrs by broth microdilution method; format: functional
[1] = Cytotoxicity against human HUVEC cells assessed as inhibition on cell growth incubated for 24 hrs by CCK-8 assay; format: toxicity, cell-based
Aspergillus fumigatus = assay: Antifungal activity against Aspergillus fumigatus 7544 assessed as fungal growth inhibition incubated for 48 hrs by broth microdilution method; format: functional
[2] = Cytotoxicity against human HUVEC cells assessed as cell viability at 64 ug/ml incubated for 24 hrs by CCK-8 assay; format: toxicity, cell-based; conditions: at 64 µg/mL, read-out: Activity
[3] = Cytotoxicity against human Caco-2 cells assessed as cell viability at 64 ug/ml incubated for 24 hrs by CCK-8 assay; format: toxicity, cell-based; conditions: at 64 µg/mL, read-out: Activity
[4] = Cytotoxicity against human Caco-2 cells assessed as cell viability at 256 ug/ml incubated for 24 hrs by CCK-8 assay; format: toxicity, cell-based; conditions: at 256 µg/mL, read-out: Activity
[5] = Hemolytic activity in rabbit RBC at 16 ug/ml incubated for 1 hr by spectrophotometry; format: toxicity, cell-based, Oryctolagus cuniculus, Erythrocyte; conditions: red blood cells, at 16 µg/mL, read-out: Activity
[6] = Hemolytic activity in rabbit RBC at 64 ug/ml incubated for 1 hr by spectrophotometry; format: toxicity, cell-based, Oryctolagus cuniculus, Erythrocyte; conditions: red blood cells, at 64 µg/mL, read-out: Activity
[7] = Hemolytic activity in rabbit RBC at 32 ug/ml incubated for 1 hr by spectrophotometry; format: toxicity, cell-based, Oryctolagus cuniculus, Erythrocyte; conditions: red blood cells, at 32 µg/mL, read-out: Activity
[8] = Cytotoxicity against human HUVEC cells assessed as cell viability at 256 ug/ml incubated for 24 hrs by CCK-8 assay; format: toxicity, cell-based; conditions: at 256 µg/mL, read-out: Activity

Row | SMILES | MIC (Candida albicans) [µg/mL] | MIC (Cryptococcus neoformans) [µg/mL] | IC50 at 24 h [1] [µg/mL] | MIC (Aspergillus fumigatus) [µg/mL] | other results
1 | O=C(NCCO)c1c(O)c2sccc2n(Cc2ccccc2)c1=O | > 64 | 8 (≈ 23.2 µM) | 64 (≈ 186 µM) | 32 (≈ 92.9 µM) | 
2 | CCOCCNC(=O)c1c(O)c2sccc2n(Cc2ccccc2)c1=O | > 64 | 0.5 (≈ 1.34 µM) | 8 (≈ 21.5 µM) | 16 (≈ 43 µM) | 
3 | O=C(NCC1CC1)c1c(O)c2sccc2n(Cc2ccccc2)c1=O | > 64 | 1 (≈ 2.82 µM) |  | > 64 | 
4 | CCCCCNC(=O)c1c(O)c2sccc2n(Cc2ccccc2)c1=O | > 64 | 0.5 (≈ 1.35 µM) | > 64 | > 64 | 
5 | O=C(NCc1cccs1)c1c(O)c2sccc2n(Cc2ccccc2)c1=O | > 64 | 2 (≈ 5.04 µM) |  | > 64 | 
6 | O=C(NCc1ccccc1F)c1c(O)c2sccc2n(Cc2ccccc2)c1=O | > 64 | 2 (≈ 4.9 µM) |  | > 64 | 
7 | C=CCCNC(=O)c1c(O)c2sccc2n(Cc2ccccc2)c1=O | > 64 | 0.25 (≈ 0.705 µM) | > 64 | > 64 | 
8 | O=C(NCc1ccc(Cl)cc1)c1c(O)c2sccc2n(Cc2ccccc2)c1=O | > 64 | 1 (≈ 2.35 µM) |  | > 64 | 
9 | O=C(NCC1CCCO1)c1c(O)c2sccc2n(Cc2ccccc2)c1=O (stereo not drawn) | 32 (≈ 83.2 µM) | 4 (≈ 10.4 µM) |  | 16 (≈ 41.6 µM) | 
10 | CC(C)NC(=O)c1c(O)c2sccc2n(Cc2ccccc2)c1=O | > 64 | 2 (≈ 5.84 µM) | > 64 | > 64 | 
11 | O=C(NCc1cccc(Cl)c1)c1c(O)c2sccc2n(Cc2ccccc2)c1=O | > 64 | 2 (≈ 4.71 µM) |  | > 64 | 
12 | O=C(NC1CCCCC1)c1c(O)c2sccc2n(Cc2ccccc2)c1=O | > 64 | 8 (≈ 20.9 µM) | > 64 | > 64 | 
13 | O=C(NC1CCCC1)c1c(O)c2sccc2n(Cc2ccccc2)c1=O | > 64 | 4 (≈ 10.9 µM) | > 64 | > 64 | 
14 | O=C(NCc1ccncc1)c1c(O)c2sccc2n(Cc2ccccc2)c1=O | 64 (≈ 163 µM) | 2 (≈ 5.11 µM) |  | 8 (≈ 20.4 µM) | 
15 | O=C(NCCN1CCOCC1)c1c(O)c2sccc2n(Cc2ccccc2)c1=O | 32 (≈ 77.4 µM) | 8 (≈ 19.3 µM) |  | 64 (≈ 155 µM) | 
16 | CSc1ccc(CNC(=O)c2c(O)c3sccc3n(Cc3ccccc3)c2=O)cc1 | > 64 | 2 (≈ 4.58 µM) |  | > 64 | 
17 | O=C(Nc1ccccc1)c1c(O)c2sccc2n(Cc2ccccc2)c1=O | > 64 | > 64 |  | > 64 | 
18 | O=C(NN1CCOCC1)c1c(O)c2sccc2n(Cc2ccccc2)c1=O | > 64 | > 64 | > 64 | > 64 | 
19 | O=C(NCc1ccc(F)cc1)c1c(O)c2sccc2n(Cc2ccccc2)c1=O | > 64 | 4 (≈ 9.79 µM) |  | > 64 | 
20 | C#CCNC(=O)c1c(O)c2sccc2n(Cc2ccccc2)c1=O | > 64 | 16 (≈ 47.3 µM) | > 64 | > 64 | 
21 | O=C(NCc1ccccn1)c1c(O)c2sccc2n(Cc2ccccc2)c1=O | > 64 | 2 (≈ 5.11 µM) |  | 16 (≈ 40.9 µM) | 
22 | O=C(NN1CCCCC1)c1c(O)c2sccc2n(Cc2ccccc2)c1=O | > 64 | 16 (≈ 41.7 µM) | > 64 | > 64 | 
23 | O=C(NCCCO)c1c(O)c2sccc2n(Cc2ccccc2)c1=O | > 64 | 4 (≈ 11.2 µM) | 64 (≈ 179 µM) | 32 (≈ 89.3 µM) | 

Row | SMILES | MIC (Candida albicans) [µg/mL] | MIC (Cryptococcus neoformans) [µg/mL] | IC50 at 24 h [1] [µg/mL] | MIC (Aspergillus fumigatus) [µg/mL] | other results
24 | CCCNC(=O)c1c(O)c2sccc2n(Cc2ccccc2)c1=O | > 64 | 2 (≈ 5.84 µM) | > 64 | > 64 | 
25 | CC1CCN(CCNC(=O)c2c(O)c3sccc3n(Cc3ccccc3)c2=O)CC1 | 32 (≈ 75.2 µM) | 32 (≈ 75.2 µM) |  | 32 (≈ 75.2 µM) | 
26 | C[C@@H]1[C@H](O)[C@@H](C)/C=C/C=C/C=C/C=C/C=C/C=C/C=C/[C@H](O[C@@H]2O[C@H](C)[C@@H](O)[C@H](N)[C@@H]2O)C[C@@H]2O[C@](O)(C[C@@H](O)C[C@@H](O)[C@H](O)CC[C@@H](O)C[C@@H](O)CC(=O)O[C@H]1C)C[C@H](O)[C@H]2C(=O)O [AMPHOTERICIN B] | 0.125 (≈ 0.135 µM) | 1 (≈ 1.08 µM) | 16 (≈ 17.3 µM) | 2 (≈ 2.16 µM) | viability at 24 h, 64 ug/ml [2]: 68.2%; viability at 24 h, 64 ug/ml [3]: 64.8%; viability at 24 h, 256 ug/ml [4]: 28.7%; hemolysis at 1 h, 16 ug/ml [5]: 8.06%; hemolysis at 1 h, 64 ug/ml [6]: 100%; hemolysis at 1 h, 32 ug/ml [7]: > 95%; viability at 24 h, 256 ug/ml [8]: 13.7%
27 | CCC(C)NC(=O)c1c(O)c2sccc2n(Cc2ccccc2)c1=O (stereo not drawn) | > 64 | 4 (≈ 11.2 µM) |  | 64 (≈ 180 µM) | 
28 | Cc1ccccc1CNC(=O)c1c(O)c2sccc2n(Cc2ccccc2)c1=O | > 64 | 2 (≈ 4.94 µM) |  | > 64 | 
29 | CC(C)CNC(=O)c1c(O)c2sccc2n(Cc2ccccc2)c1=O | > 64 | 16 (≈ 44.9 µM) |  | > 64 | 
30 | O=C(NCCc1cccs1)c1c(O)c2sccc2n(Cc2ccccc2)c1=O | > 64 | 2 (≈ 4.87 µM) |  | > 64 | 
31 | O=C(NCc1ccccc1Cl)c1c(O)c2sccc2n(Cc2ccccc2)c1=O | > 64 | 2 (≈ 4.71 µM) |  | > 64 | 
32 | O=C(NCCc1c[nH]c2ccccc12)c1c(O)c2sccc2n(Cc2ccccc2)c1=O | > 64 | 8 (≈ 18 µM) |  | > 64 | 
33 | CN(C)c1ccc(CNC(=O)c2c(O)c3sccc3n(Cc3ccccc3)c2=O)cc1 | > 64 | 4 (≈ 9.23 µM) |  | > 64 | 
34 | CC(NC(=O)c1c(O)c2sccc2n(Cc2ccccc2)c1=O)c1ccccc1 (stereo not drawn) | > 64 | 4 (≈ 9.89 µM) |  | > 64 | 
35 | COc1ccc(CNC(=O)c2c(O)c3sccc3n(Cc3ccccc3)c2=O)cc1 | > 64 | 2 (≈ 4.76 µM) |  | > 64 | 
36 | COc1cccc(CNC(=O)c2c(O)c3sccc3n(Cc3ccccc3)c2=O)c1 | > 64 | 2 (≈ 4.76 µM) |  | > 64 | 
37 | COCCNC(=O)c1c(O)c2sccc2n(Cc2ccccc2)c1=O | > 64 | 2 (≈ 5.58 µM) | 16 (≈ 44.6 µM) | 32 (≈ 89.3 µM) | 
38 | O=C(NCCCCO)c1c(O)c2sccc2n(Cc2ccccc2)c1=O | > 64 | 2 (≈ 5.37 µM) | 16 (≈ 43 µM) | 32 (≈ 85.9 µM) | 
39 | O=C(NCCc1ccccc1)c1c(O)c2sccc2n(Cc2ccccc2)c1=O | > 64 | 4 (≈ 9.89 µM) |  | > 64 | 
40 | CCCCCCNC(=O)c1c(O)c2sccc2n(Cc2ccccc2)c1=O | > 64 | 0.5 (≈ 1.3 µM) | > 64 | > 64 | 
41 | CC(NC(=O)c1c(O)c2sccc2n(Cc2ccccc2)c1=O)c1ccc(F)cc1 (stereo not drawn) | > 64 | 2 (≈ 4.73 µM) |  | > 64 | 
42 | Cc1ccc(CNC(=O)c2c(O)c3sccc3n(Cc3ccccc3)c2=O)o1 | > 64 | 2 (≈ 5.07 µM) |  | > 64 | 
43 | Cc1ccc(CNC(=O)c2c(O)c3sccc3n(Cc3ccccc3)c2=O)cc1C | > 64 | 2 (≈ 4.78 µM) |  | > 64 | 
44 | O=C(NCc1cc(F)cc(F)c1)c1c(O)c2sccc2n(Cc2ccccc2)c1=O | > 64 | 2 (≈ 4.69 µM) |  | > 64 | 
45 | O=C(NCc1ccc(F)cc1F)c1c(O)c2sccc2n(Cc2ccccc2)c1=O | > 64 | 2 (≈ 4.69 µM) |  | > 64 | 
